Reference: patent US8664257B2, “Oxygen-substituted 3-heteroaroylamino-propionic acid derivatives and their use as pharmaceuticals” (Sanofi, priority 2010, dated 2014)
Read-outs that look alike come from different tables or passages of the source.

Target: T1, Recombinant human cathepsin A (Homo sapiens, UniProt P10619)
T1 construct: Recombinant human cathepsin A (residues 29-480, with a C-terminal 10-His tag); 10-His (C); purchased R&D Systems 1049-SE
T1 sequence (P10619 29-312 limits assumed): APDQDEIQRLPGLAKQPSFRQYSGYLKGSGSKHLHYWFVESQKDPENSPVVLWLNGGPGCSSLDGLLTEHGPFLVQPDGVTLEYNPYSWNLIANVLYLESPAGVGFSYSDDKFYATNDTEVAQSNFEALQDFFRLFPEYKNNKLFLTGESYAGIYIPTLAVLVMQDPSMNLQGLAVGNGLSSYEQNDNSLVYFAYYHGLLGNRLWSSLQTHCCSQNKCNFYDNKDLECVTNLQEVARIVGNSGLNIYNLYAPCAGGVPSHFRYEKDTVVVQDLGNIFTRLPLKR
T1 sequence (P10619 327-480 limits assumed): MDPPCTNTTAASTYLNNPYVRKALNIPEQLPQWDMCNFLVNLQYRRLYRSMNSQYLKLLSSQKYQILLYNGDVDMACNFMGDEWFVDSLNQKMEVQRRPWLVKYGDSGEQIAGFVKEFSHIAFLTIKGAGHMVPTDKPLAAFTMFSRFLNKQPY
Experiment: Cathepsin A inhibitory activity
Assay type: biochemical
How it was run: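 Read-out was microfluidic separation of cleaved vs. uncleaved Bodipy FL-bradykinin (2 μM), giving turnover, % inhibition and IC50. Compound and 833 ng/ml enzyme met for 15 min RT in pH 5.5 MES/DTT before substrate (15 min RT). The 29-480 His-tagged human enzyme was first activated by cathepsin L, then E-64 (10 μM).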

[1] = read-out: Activity (2): Cathepsin A inhibitory activity, IC50 class
[2] = pharmacological test "Cathepsin A inhibitory activity", IC50 given as class A/B/C, read-out: Activity (2): Cathepsin A inhibitory activity, IC50 class
[3] = read-out: Activity (2): Cathepsin A inhibitory activity (IC50 class)
[4] = recombinant human cathepsin A 833 ng/ml, Bodipy FL-labeled bradykinin 2 μM, pH 5.5, read-out: CATH-A IC50
[5] = recombinant human cathepsin A, read-out: Activity (2): Cathepsin A inhibitory activity, IC50 class

IC50 [1] [µM] | IC50 [3] [µM] | SMILES | also measured
0.1 to 1 | – | O=C(O)C[C@H](NC(=O)c1cc(O)n(-c2cccc(F)c2)n1)c1ccc(Cl)cc1Cl [Example 332] | –
0.1 to 1 | – | O=C(O)C[C@H](NC(=O)c1cc(O)n(-c2ccccc2Cl)n1)c1cccc(F)c1 [Example 393] | –
– | 1 to 30 | CS(=O)(=O)c1ccc(C(CC(=O)O)NC(=O)c2cc(O)n(-c3ccccc3)n2)cc1 (stereo not drawn) [Example 600] | –
– | < 0.1 | CC(C)(C)[C@](C)(O)COc1cc(C(=O)N[C@@H](CC(=O)O)c2ccccc2Cl)nn1-c1ccccc1F (single isomer, unassigned) [Example 759] | –
0.1 to 1 | – | O=C(O)C[C@H](NC(=O)c1cc(O)n(-c2ccccc2F)n1)c1c(F)cccc1F [Example 125] | –
– | 1 to 30 | CS(=O)(=O)c1ccc(C(CC(=O)O)NC(=O)c2cc(O)n(-c3ccccc3F)n2)cc1 (stereo not drawn) [Example 603, 3-{[1-(2-Fluoro-phenyl)-5-hydroxy-1H-pyrazole-3-carbonyl]-amino}-3-(4-methanesulfonyl-phenyl)-propionic acid] | –
1 to 30 | – | Cc1ccccc1[C@H](CC(=O)O)NC(=O)c1cc(O)n(-c2ccc(Cl)cn2)n1 [Example 130] | –
– | < 0.1 | COc1cc(C(=O)N[C@@H](CC(=O)O)c2ccc(C)cc2)nn1-c1ccccc1F [Example 675] | –
– | 0.1 to 1 | CCOc1cc(C(=O)N[C@@H](CC(=O)O)c2ccc(C#N)cc2)nn1-c1ccccc1F [Example 710] | –
– | < 0.1 | Cc1ccccc1[C@H](CC(=O)O)NC(=O)c1cc(OC2CCCCC2)n(-c2ccccc2F)n1 [Example 631] | –
– | 0.1 to 1 | CCOc1cc(C(=O)NC(CC(=O)O)c2ccc(F)cc2)nn1-c1ccccc1F (stereo not drawn) [Example 719] | –
– | 1 to 30 | COc1ccc(C(CC(=O)O)NC(=O)c2cc(O)n(-c3ccccc3Cl)n2)c(C(F)(F)F)c1 (stereo not drawn) [Example 567, 3-{[1-(2-Chloro-phenyl)-5-hydroxy-1H-pyrazole-3-carbonyl]-amino}-3-(4-methoxy-2-trifluoromethyl-phenyl)-propionic acid] | IC50 [4]: 1.06 µM
– | < 0.1 | Cc1ccc(C(CC(=O)O)NC(=O)c2cc(OCC3CC3)n(-c3ccccc3F)n2)c(C)c1 (stereo not drawn) [Example 686] | –
– | < 0.1 | Cc1nc(COc2cc(C(=O)N[C@@H](CC(=O)O)c3ccccc3C)nn2-c2ccccc2F)cs1 [Example 646] | –

The next lines start with the compound.

SMILES | IC50 [1] [µM] | IC50 [3] [µM] | also measured
O=C(O)C[C@H](NC(=O)c1cc(O)n(-c2cccc(Cl)c2)n1)c1ccccc1Br [Example 251] | – | – | IC50 [2]: 0.1 to 1 µM
Cc1ccccc1[C@H](CC(=O)O)NC(=O)c1cc(OC[C@H]2CCC(=O)N2)n(-c2ccccc2F)n1 [Example 652] | – | < 0.1 | –
O=C(O)CC(NC(=O)c1cc(O)n(-c2ccccc2)n1)c1cc(Cl)ccc1Cl (stereo not drawn) [Example 444, 3-(2,5-Dichloro-phenyl)-3-[(5-hydroxy-1-phenyl-1H-pyrazole-3-carbonyl)-amino]-propionic acid] | – | – | IC50 [4]: 0.0831 µM; IC50 [5]: < 0.1 µM
COc1cc(C(=O)N[C@@H](CC(=O)O)c2ccccc2C)nn1-c1ccccc1F [Example 129, (S)-3-{[1-(2-Fluoro-phenyl)-5-methoxy-1H-pyrazole-3-carbonyl]-amino}-3-o-tolyl-propionic acid] | < 0.1 | – | IC50 [4]: 0.0412 µM
O=C(O)C[C@H](NC(=O)c1cc(O)n(-c2cccc(F)c2)n1)c1ccccc1F [Example 433] | – | – | IC50 [5]: 0.1 to 1 µM
CC(C)C(C)(O)COc1cc(C(=O)N[C@@H](CC(=O)O)c2ccccc2C(F)(F)F)nn1-c1ccccc1F (stereo partly drawn) [Example 812, (S)-3-{[1-(2-Fluoro-phenyl)-5-(2-hydroxy-2,3-dimethyl-butoxy)-1H-pyrazole-3-carbonyl]-amino}-3-(2-trifluoromethyl-phenyl)-propionic acid] | < 0.1 | – | –
O=C(O)C[C@H](NC(=O)c1cc(O)n(-c2ccc(Cl)cc2)n1)c1c(F)cccc1F [Example 295] | 1 to 30 | – | –
O=C(O)CC(NC(=O)c1cc(O)n(-c2ccc(F)cc2F)n1)c1cccc2c1OCO2 (stereo not drawn) [Example 174] | – | – | IC50 [2]: 0.1 to 1 µM
COc1cc(C(=O)N[C@@H](CC(=O)NC2CCNC2=O)c2ccccc2C)nn1-c1ccccc1F (stereo partly drawn) [Example 931, 1-(2-Fluoro-phenyl)-5-methoxy-1H-pyrazole-3-carboxylic acid [(S)-2-(2-oxo-pyrrolidin-3-ylcarbamoyl)-1-o-tolyl-ethyl]-amide] | – | – | IC50 [5]: 1 to 30 µM
COc1ccc(C(CC(=O)O)NC(=O)c2cc(O)n(-c3ccc(F)cc3F)n2)c(Cl)c1 (stereo not drawn) [Example 179] | – | – | IC50 [2]: 0.1 to 1 µM
Cc1ccc([C@H](CC(=O)O)NC(=O)c2cc(O)n(-c3ccccc3F)n2)cc1 [Example 480] | – | – | IC50 [5]: 0.1 to 1 µM
Cc1ccccc1[C@H](CC(=O)O)NC(=O)c1cc(OCC(O)C(C)(C)C)n(-c2ccccc2F)n1 (stereo partly drawn) [Example 744, (S)-3-{[1-(2-Fluoro-phenyl)-5-(2-hydroxy-3,3-dimethyl-butoxy)-1H-pyrazole-3-carbonyl]-amino}-3-o-tolyl-propionic acid] | – | < 0.1 | –
O=C(O)C[C@H](NC(=O)c1cc(O)n(-c2cccc(Cl)c2)n1)c1cccc(F)c1 [Example 414] | – | – | IC50 [5]: 1 to 30 µM
CCc1ccc(C(CC(=O)O)NC(=O)c2cc(O)n(-c3ccccc3F)n2)cc1 (stereo not drawn) [Example 134] | 0.1 to 1 | – | –
COc1ccc([C@H](CC(=O)O)NC(=O)c2cc(O)n(-c3ccccc3F)n2)cn1 [Example 136] | 0.1 to 1 | – | –
COc1ccc(C(CC(=O)O)NC(=O)c2cc(O)n(-c3ccccc3F)n2)c(Cl)c1 (stereo not drawn) [Example 235] | – | – | IC50 [2]: 0.1 to 1 µM
O=C(O)CC(NC(=O)c1cc(O)n(-c2ccccc2)n1)c1cccc(Cl)c1F (stereo not drawn) [Example 172] | – | – | IC50 [2]: 0.1 to 1 µM
Cc1ccc(C)c(-n2nc(C(=O)NC(CC(=O)O)c3cccc(C(F)(F)F)c3)cc2O)c1 (stereo not drawn) [Example 53] | 1 to 30 | – | –
O=C(O)CC(NC(=O)c1cc(O)n(-c2ccccc2)n1)c1ccccc1Oc1ccccc1 (stereo not drawn) [Example 442] | – | – | IC50 [5]: 1 to 30 µM
CC(C)(C)[C@@H](O)COc1cc(C(=O)N[C@@H](CC(=O)O)c2cccc(Cl)c2)nn1-c1ccccc1F [Example 795, (S)-3-(3-Chloro-phenyl)-3-{[1-(2-fluoro-phenyl)-5-((R)-2-hydroxy-3,3-dimethyl-butoxy)-1H-pyrazole-3-carbonyl]-amino}-propionic acid] | < 0.1 | – | –

SMILES | IC50 [1] [µM] | IC50 [3] [µM] | also measured
Cc1ccccc1[C@H](CC(=O)O)NC(=O)c1cc(OCC2CCOCC2)n(-c2ccccc2F)n1 [Example 627] | – | < 0.1 | –
O=C(O)CC(NC(=O)c1cc(O)n(-c2cccc(Cl)c2)n1)c1ccc(-c2cccc(F)c2)cc1 (stereo not drawn) [Example 260] | – | – | IC50 [2]: 1 to 30 µM
Cc1ccccc1[C@H](CC(=O)O)NC(=O)c1cc(OCC2CC2)n(-c2c(F)cccc2F)n1 [Example 634] | – | < 0.1 | –
COc1ccc([C@H](CC(=O)O)NC(=O)c2cc(O)n(-c3ccc(F)cc3)n2)cc1 [Example 435] | – | – | IC50 [5]: 0.1 to 1 µM
Cc1ccccc1[C@@H](CC(=O)O)NC(=O)c1cc(O)n(-c2ccccc2)n1 [Example 83] | 1 to 30 | – | –
CCOc1cc(C(=O)N[C@@H](CC(=O)O)c2ccc(C#N)cc2)nn1-c1ccccc1Cl [Example 730] | – | 0.1 to 1 | –
O=C(O)C[C@H](NC(=O)c1cc(O)n(-c2ccccc2)n1)c1ccc(C(F)(F)F)cc1 [Example 99] | 0.1 to 1 | – | –
COc1ccc(F)cc1C(CC(=O)O)NC(=O)c1cc(O)n(-c2ccc(F)cc2)n1 (stereo not drawn) [Example 525, 3-(5-Fluoro-2-methoxy-phenyl)-3-{[1-(4-fluoro-phenyl)-5-hydroxy-1H-pyrazole-3-carbonyl]-amino}-propionic acid] | – | – | IC50 [4]: 1.51 µM; IC50 [5]: 1 to 30 µM
COc1cc(C(=O)N[C@@H](CC(=O)O)c2ccc(C#N)cc2)nn1-c1ccccc1F [Example 668] | – | 0.1 to 1 | –
O=C(O)C[C@H](NC(=O)c1cc(O)n(-c2ccccc2Cl)n1)c1ccc(Cl)cc1 [Example 109] | 0.1 to 1 | – | –
Cc1ccc(C(CC(=O)O)NC(=O)c2cc(O)n(-c3ccccc3Cl)n2)c(C)c1 (stereo not drawn) [Example 225] | – | – | IC50 [2]: 0.1 to 1 µM
Cc1ccc(C)c(-n2nc(C(=O)NC(C)(C)CC(=O)O)cc2O)c1 [Example 8] | 1 to 30 | – | –
O=C(O)C[C@H](NC(=O)c1cc(O)n(-c2cccc(F)c2)n1)c1ccccc1Cl [Example 522] | – | – | IC50 [5]: 0.1 to 1 µM
COc1cccc(-c2ccc(C(CC(=O)O)NC(=O)c3cc(O)n(-c4ccccc4F)n3)cc2)c1 (stereo not drawn) [Example 156] | – | – | IC50 [2]: 0.1 to 1 µM
O=C(O)CC(NC(=O)c1cc(O)n(-c2ccccc2F)n1)c1ccc(-c2ccccn2)cc1 (stereo not drawn) [Example 481] | – | – | IC50 [5]: 0.1 to 1 µM
CCc1ccc(C(CC(=O)O)NC(=O)c2cc(O)n(-c3ccccc3Cl)n2)cc1 (stereo not drawn) [Example 224] | – | – | IC50 [2]: 0.1 to 1 µM
O=C(O)CC(NC(=O)c1cc(O)n(-c2ccccc2F)n1)c1ccc(Cl)cc1F (stereo not drawn) [Example 243] | – | – | IC50 [2]: 0.1 to 1 µM
COc1cccc([C@H](CC(=O)O)NC(=O)c2cc(OC[C@@](C)(O)C(C)(C)C)n(-c3ccccc3F)n2)c1OC [Example 884, (S)-3-(2,3-Dimethoxy-phenyl)-3-{[1-(2-fluoro-phenyl)-5-((S)-2-hydroxy-2,3,3-trimethyl-butoxy)-1H-pyrazole-3-carbonyl]-amino}-propionic acid] | < 0.1 | – | –
COc1ccc([C@H](CC(=O)O)NC(=O)c2cc(O)n(-c3cccc(Cl)c3)n2)cn1 [Example 269] | – | – | IC50 [2]: 1 to 30 µM
